Assay results as given in a melting point compilation (Tetko et al.; mined from patent text by program, amines drawn as free bases though some values may be those of a salt).

Row | Structure (SMILES) | melting point [°C]
1 | O=C(O)c1ccc2c(=O)[nH]c(=O)n(CCCCN3CCC(OC(c4ccccc4)c4ccccc4)CC3)c2c1 | 177 to 179
2 | CCCC(CCC)N(C[C@H]1CCC[C@H](CN(C(=O)Nc2ccc(N(C)C)cc2)C(CCC)CCC)C1)C(=O)Nc1ccc(N(C)C)cc1 (relative stereo) | 122 to 126
3 | COC(=O)c1sc(C)c(O)c1O | 116 to 117
4 | C/C(=C\c1ccccc1)CNc1cccc(-c2ccnc3c(C(=O)c4cccs4)cnn23)c1 | 74 to 76
5 | CCc1cc(OCc2ccccc2)cc(=O)o1 | 62 to 63
6 | CC(CN(C)C)C(C#N)(c1ccccc1)c1ccccc1 (single isomer, unassigned; (-)) | 102 to 103
7 | N#CC(C(N)=S)c1ccc(Cl)c(Cl)c1 (centres undefined) | 143
8 | CCN(CC)CCOc1ccc(Nc2ncc3c(n2)N(C2CCCC2)C(=O)NC3)cc1C | 175 to 177
9 | CCC(CC)Nc1c([N+](=O)[O-])cc(C)c(C=CN(C)C)c1[N+](=O)[O-] | 100 to 102
10 | CCCCCCCCCC(=O)OCC#Cc1ncn2c1CN(C)C(=O)c1c(Cl)cccc1-2 | 70 to 72
11 | C#C[C@]1(OC(C)=O)CC[C@H]2[C@@H]3CC(=C)C4=CC(=O)CC[C@@H]4[C@H]3CC[C@@]21C | 157
12 | COc1cc(C(=O)NS(=O)(=O)c2ccccc2C)ccc1Cc1c(Cl)n(C)c2cc(Cl)c(CC(C)NC(=O)N(C)C)cc12 (centres undefined) | 136 to 146
13 | CCCCn1c(=O)c2c(cnn2S(=O)(=O)CC)n(CCCC)c1=O | 119 to 121
14 | Cc1cc(C)cc(C(O)(CCc2cncn2Cc2ccccc2)c2cc(C)cc(C)c2)c1 | 120 to 124
15 | CC(C)CC(NC(=O)c1ccccc1)C(=O)NC(CCCN(C(=N)NC(=O)OCc1ccccc1)C(=O)OCc1ccccc1)C(=O)Oc1cccc2ccccc12 (centres undefined) | 178 to 187
16 | CCC(=O)N(CC)c1cccc(-c2ccnc3c(C(=O)c4ccccc4)cnn23)c1 | 194 to 195
17 | COc1cc2ncnc(Nc3ccc(OCc4ccccn4)c(C)c3)c2cc1OCCN(C)C | 125 to 126
18 | CC1(C)OCC2OC2CO1 (centres undefined) | 70 to 74
19 | COc1cc(Nc2c(C#N)cnc3cc(-c4ccc(CN5CCOCC5)cc4)c(OC)cc23)c(Cl)cc1Cl | 108 to 110
20 | CC(C)(C)OC(=O)[C@@H]1CS[C@H](c2ccccc2-c2ccccc2)N1C(=O)CNC(=O)Nc1cccc(CC(=O)O)c1 | 128
21 | COc1ccc2[nH]cc(CCN3CCC(c4ccc(C)cc4)CC3)c2c1 | 131 to 133
22 | CCOC(=O)C(NC(=O)CNC(=O)OCc1ccccc1)C(=O)OCC | 94.5 to 95.5
23 | CN1Cc2c(/C=C\Cl)ncn2-c2ccccc2C1=O | 197 to 199
24 | FC(F)(F)Oc1ccc(C2CCC3(CC2)OCCO3)cc1 | 41.2
25 | CC(C)C(=O)NC1c2cc3nonc3cc2OC(C)(C)C1O (centres undefined) | 194 to 196
26 | CCCCCCCCCCCCCCCCCCN(C)c1ccc(N)cc1C(=O)O | 81 to 83

Row | Structure (SMILES) | melting point [°C]
27 | O=C(O)CCC(=O)c1ccc(-c2ccccc2F)cc1 | 148 to 153
28 | CCCCCCCCC1C=CC(CCc2ccc(C(=O)O)o2)=C2N=C3CCCCC3=C21 (centres undefined) | 110 to 111
29 | O=C1C=CC(OC2CCCC2)N1 (centres undefined) | 81 to 82
30 | O=C1NC(=O)C2(c3cccc([N+](=O)[O-])c3)CC12 (centres undefined) | 173 to 174
31 | Cc1cccc2c1N(CC(=O)c1ccccc1[N+](=O)[O-])C(=O)C(NC(=O)Nc1cccc(-c3nnn[nH]3)c1)N=C2c1ccccc1F (centres undefined) | 192 to 197
32 | NC(=O)C1CCCC(C(=O)O)C1 (centres undefined) | 102 to 128
33 | CCCCCCC(Cc1ccc(OCCN2CCCCCC2)cc1)(C(=O)NO)S(=O)(=O)c1ccc(OC)cc1 (centres undefined) | 65
34 | O=[N+]([O-])c1cccc(OCCc2c[nH]cn2)c1 | 174 to 178
35 | O=S1(=O)N=Cc2cccc(Cl)c21 | 162 to 164
36 | N#CC=C1CCc2cnc3c(c21)CCO3 | 153 to 155
37 | COC1=C(OC)C(=O)C2=C(CC(CCCCCCCCN3CCN(Cc4ccccc4)CC3)(c3ccccc3)C2)C1=O | 78 to 80
38 | CC(C)C(=O)CC(=O)Nc1ccccc1 | 46.5 to 58.8
39 | CCOCc1nc2c(N)nc3c(c2n1NCCCNC(=O)NC(C)C)CCCC3 | 185 to 187
40 | CC(C)(C)C(=N)Nc1ccccc1N1CCOCC1 | 126
41 | CC(OC(=O)OC1CC(=O)NC1=O)OC(=O)C(C)C (centres undefined) | 50 to 54
42 | CCP(=O)(CC)C(O)[C@H](CC1CCCCC1)NC(=O)[C@H](CC(C)C)NC(=O)[C@H](Cc1ccccc1)NC(=O)C1CCCC1 (some centres undefined) | 170 to 171
43 | CCN(CC)c1ccc(C(=O)c2ccccc2C(=O)O)cc1 | 184
44 | CC(C)(C)OC(=O)CN1CC(c2ccccc2)CCC(N=[N+]=[N-])C1=O (centres undefined) | 119 to 121
45 | COc1cc(C(=O)NS(=O)(=O)c2ccccc2)ccc1CN1CCOc2ccc(NC(=O)OC3CCCC3)cc21 | 186 to 187
46 | O=C(O)C1=Cc2cc(C(F)F)ccc2OC1C(F)(F)F (centres undefined) | 135 to 136
47 | O=C(O)C1(c2ccc(CN3CCN(c4ccc(F)cc4F)CC3)cc2)CC1 | 70 to 74
48 | CCCC12CCC(c3ccc(Cl)cc3)(OC1)OC2 | 94
49 | Brc1ccc(Cc2cc(Br)c(Cc3ccc(Br)cc3)cc2Br)cc1 | 161 to 167
50 | COc1cc(N)c(Cl)cc1C(=O)N[C@H]1CCN(CC#N)C[C@H]1OC (relative stereo) | 130
51 | CCn1cc(C2CCC3(CC2)OCCO3)c2cc(C#N)ccc21 | 124 to 126

More lines, now with the values ahead:

Row | melting point [°C] | Structure (SMILES)
52 | 262 to 263 | CNc1cc(NC)nc(NS(=O)(=O)c2ccc(N)cc2)n1
53 | 130 to 136 | NC(=O)c1n[nH]c(S(=O)(=O)c2ccc(Br)cc2)n1
54 | 126 to 128 | COC1(c2cc(F)cc(OCc3ccc(N(C)S(C)(=O)=O)c(Cl)c3)c2)CCOCC1
55 | 205 to 206 | O=C(C=Cc1ccccc1S(=O)(=O)Nc1ccccc1)NO
56 | 225 to 227 | C[C@H]1[C@H](N)CN1c1cc2c(cc1F)c(=O)c(C(=O)O)cn2C(C)(C)C (relative stereo)
57 | 134 to 135 | Nc1nc2ccccc2c2c1ncn2CCOCCCc1nccs1
58 | 130 to 133 | CCNC(=O)NCCNc1nc(-c2ccc(F)cc2C)c2ccc(=O)n(-c3c(F)cccc3F)c2n1
59 | 165 to 168 | CC(C)(C)OC(=O)C1CC(c2ccc(-c3ccc(N4C[C@H](Cn5ccnn5)OC4=O)cc3F)cn2)=NO1 (some centres undefined)
60 | > 300 | O=C1Nc2ccc(C(F)(F)F)cc2C1c1ncnc2c1cnn2C1CCCCC1 (centres undefined)
61 | 92 to 95 | COc1nc2cc(Cl)ccc2nc1Cl
62 | 261 to 263 | O=C(O)c1ccc2nc3c(c(=O)n2c1)CCCC3=Cc1ccccc1
63 | 188 to 189 | COC(=O)Nc1nc(C)c(C(=O)c2sc(NC(=O)OC)nc2C)s1
64 | 169 to 170 | COc1cc(OC)c2cnc(-c3cc(C)c(OCCO)c(C)c3)nc2c1
65 | 148 | CC(C)C(C(=O)Nc1n[nH]c(=S)s1)N(C(=O)OCc1ccccc1)c1ccccc1F (centres undefined)
66 | 255 to 256 | COc1cccc(C(=O)Nc2nc(-c3cccc(C#N)c3)c(-c3ccncn3)s2)c1
67 | 89 to 92 | COC(=O)CCc1cc2cc(Cl)ccc2n1S(=O)(=O)c1ccc(Cl)cc1
68 | 67 to 69 | CSc1ccc(N2CCc3ccccc32)c([N+](=O)[O-])c1
69 | 86 to 90 | CS(=O)(=O)c1ccc(-c2cc(=O)n(C3CCCCC3)nc2-c2ccc(F)cc2)cc1
70 | 68 to 70 | C/C=C/[C@H](O)C[C@]1(C)CCc2c(C)c(OCc3ccccc3)c(C)c(C)c2O1
71 | 66 to 67 | Cc1nc(Cc2ccc([N+](=O)[O-])cc2)no1
72 | 94 to 96 | N#Cc1ccc(F)cc1-c1ccc(OCc2ccccc2)cc1
73 | 230 | CC(=O)OC(c1nc2c(C(F)(F)F)cccc2c(O)c1C(=O)Nc1ccccn1)C(C)C (centres undefined)

Row | melting point [°C] | Structure (SMILES)
74 | 132 | C#CCC(c1ccc(Cl)cc1Cl)C(O)(C(C)=O)c1cccnc1 (centres undefined)
75 | 103 to 105 | COC(=O)c1nc(Cl)c(F)c(N)c1/C=C/[Si](C)(C)C
76 | 233 to 236 | COC(=O)/C=C/c1cc2c(-c3ccccc3)c(CC(=O)Nc3ccc(F)cc3C(F)(F)F)c(=O)oc2cc1C
77 | 113 to 114 | CC(C#CC1CC(Oc2ccc(C(F)(F)F)cc2)C1)N(O)C(N)=O (single isomer, unassigned; (+))
78 | 194 to 195 | O=C(O)Cc1oc2ccc(Cl)cc2c1-c1ccccc1
79 | 130 to 131 | Cc1nc(C(F)(F)F)ccc1C(=O)C1=C(Sc2ccc(Cl)cc2)C2CCC(C2)C1=O (centres undefined)
80 | 242 to 246 | O=C(O)c1ccc(Cl)c(S(=O)(=O)c2ccccc2[N+](=O)[O-])c1
81 | 149 to 153 | CC(=O)NNc1nc(C(F)(F)F)nc(-c2ccc(F)cc2)c1-c1ccccc1
82 | 214 to 216 | CCCn1c(=O)c2[nH]c(-c3ccc(OCC(=O)O)cc3)nc2n(CCC)c1=O
83 | 154 to 156 | CC=Cc1cnn(C)c1S(=O)(=O)NC(=O)Nc1nc(OC)cc(OC)n1
84 | 88 | Cc1cc(C#N)nc(Oc2cc(C(F)(F)F)nn2C)c1
85 | 257 to 258 | N#CC(c1ccnc(NCCc2c[nH]cn2)n1)c1nc2ccccc2s1 (centres undefined)
86 | 164 to 168 | Cc1nc(N)nc(N)c1C=CC(C)(C)c1ccc(F)cc1
87 | 99.9 to 102 | COc1nc2cc(Cl)ccc2nc1N1CCN(C)CC1
88 | 175 | COc1ccc2ccc(N3C(=O)c4ccccc4C3OCc3cccnc3)nc2n1 (centres undefined)
89 | 185 to 186 | Cc1ccc(C(=O)NC(NC(=S)Nc2c(F)cccc2F)C(F)(F)F)cc1 (centres undefined)
90 | 166 to 169 | CC1(C)CCc2cc(S(=O)(=O)n3c(CCCC(=O)O)cc4cc(Cl)ccc43)ccc2O1
91 | 259 | O=C(Nc1cccc(S(=O)(=O)NCC(F)(F)F)c1)c1cnn2c(C(F)(F)F)cc(-c3ccc(C(F)(F)F)cc3)nc12
92 | 152 to 153 | CC(=O)c1c(C)nc(N(Cc2ccccc2)Cc2ccccc2)c(N)c1NCCc1ccccc1
93 | 148 to 149 | CS(=O)(=O)c1ccc(-c2nc(-c3ccc(F)cc3)c(-c3ccncc3)[nH]2)cc1
94 | 131 to 133 | CN(C)C=C1CCN(c2ccccc2)c2ccccc2C1=O
